Laboratory results as given in patent publication US20130338115A1, “USE OF MITOCHONDRIALLY-ADDRESSED COMPOUNDS FOR PREVENTING AND TREATING CARDIOVASCULAR DISEASES” (Mitotech SA, priority 2007, published 2013).

Columns and labels:
[1] = tested on: rat heart; settings: pre-perfusion of rat heart; Kutala et al. 2006; cited from earlier work
[2] = tested on: Wistar male rats; test: Regional myocardial ischemia and reperfusion in anesthetized rats; type: in vivo, rat
Procedure: To study a possibility of reduction of the irreversible damage of cardiomyocytes by SkQ1 in vivo a model of regional myocardial ischemia and reperfusion in anesthetized rats was used. Experiments were performed on Wistar male rats weighing 300-450 grams, fed a standard diet. In the control animals during three weeks received NaBr dissolved in 0.1 M phosphate buffer (pH 6.0), at a dose of 250 nmol/kg body weight/day. Animals of the experimental group during three weeks together with food received SkQ1 dissolved in 0.1 M phosphate buffer (pH 6.0), at a dose of 250 nmol/kg body weight/day.
In urethane-anesthetized animals ([…] body weight intraperitoneally administered), artificial ventilation of the lungs with room air with added oxygen at a rate of 60-80 beats per minute was carried out. Indicators of the acid-base balance of arterial blood (pH, pO2 and pCO2) during the entire experiment were controlled with the use of acid-base gas analyzer ABL-30 (Radiometer) and maintained at a physiological level.
Catheterization of the carotid artery was performed for recording arterial pressure (Mingograf 804, Siemens-Elema). The chest was opened by longitudinal dissection of the sternum and the heart was freed from the pericardium. To induce regional myocardial ischemia, the left ventricle was pierced with an atraumatic needle 5-0 under the left appendage in the direction perpendicular to long axis of the heart. Tightening the ligature at the anterior descending coronary artery (ADA) located deep in the pierced myocardium ceased blood supply to a portion of the myocardium, weakening of the ligature restored coronary flow.
The dissection is followed by a 30-min period of stabilization of hemodynamic parameters (the initial state). Then anterior descending coronary artery was occluded for 40 min followed by 60 min of reperfusion. At the end of the experiment, to identify the risk zone (RZ) and the intact zone, anterior descending coronary artery was occluded and a 2% Evans solution (2 ml) was injected as a bolus into the jugular vein. Then the heart was cut out and the left ventricle (LV) was separated and frozen at −20° C.
To measure infarct size, the method for histochemical localization of the risk zone (RZ) and myocardial infarction (MI) by tissue staining with 2,3,5-triphenyltetrazolium chloride (TFT) was used (Kitakaze M., Takashima S., Funaya H., Minamino T., Node K., Shinozaki Y., Mori H., Hori M., 1997. Temporary acidosis during reperfusion limits myocardial infarct size. Am. J. Physiol.; 272: H2071-H207). […] The obtained samples were scanned, MI and RZ sizes were determined by the method of computer-assisted planimetry using the Imagecal program. […]

[3] = tested on: isolated hearts of Wistar rats; test: H2O2-induced development of arrhythmias in isolated rat hearts after 3 weeks oral SkQ1; type: in vivo; settings: for normal rhythm maintained, % of the experiments: hydrogen peroxide 100 μm into coronary bed
Procedure: Wistar rats received preparation SkQ1 daily for 3 weeks at doses of 2.0, 0.2 and 0.02 nmol/kg body weight by its addition to the curd. In the control group of animals, the feed was supplemented with sodium bromate in a similar dose. Experiments on isolated hearts were performed 1-2 days after the end of administration of the preparations by a standard technique under conditions of retrograde perfusion of the heart with a controlled rate of perfusion and a measurement of spontaneous heart rate. The effect of SkQ1 on the incidence of arrhythmias induced by injection of hydrogen peroxide (100 μm) into the coronary bed of hearts was studied. This model reproduces some features of a situation of oxidative stress that develops during reperfusion of ischemic heart.

[4] = SkQ1 250 nmol/kg body weight/day with food for three weeks, initial state

SMILES	reduction of infarct size caused by subsequent ischemia/reperfusion [1]	RZ/LV (risk zone/weight of the left ventricle), difference between the groups ([2]; 250 nmol/kg body weight/day, three weeks, 40 min occlusion, 60 min reperfusion)	MI/RZ ratio (myocardial infarction/risk zone), times less as compared to the control ([2]; 250 nmol/kg body weight/day, three weeks, 40 min occlusion, 60 min reperfusion, P<0.005)	effect on blood pressure [2, 4]	effect on heart rate [2, 4]	normal rhythm maintained, % of the experiments ([3]; SkQ1 0.02 nmol/kg daily for 3 weeks)	normal rhythm maintained, % of the experiments ([3]; SkQ1 0.2 nmol/kg daily for 3 weeks)	number of hearts with documented normal rhythm ([3]; SkQ1 0.2 nmol/kg, 23 experiments)	normal rhythm maintained, % of the experiments ([3]; SkQ1 2.0 nmol/kg daily for 3 weeks)
CC1(C)CC(O)CC(C)(C)N1[O] [Tempol]	1.5 times	–	–	–	–	–	–	–	–
CC1=C(C)C(=O)C(CCCCCCCCCC[P+](c2ccccc2)(c2ccccc2)c2ccccc2)=CC1=O [SkQ1]	–	no differences	1.7 times	No effect	No effect	55%	70%	16 hearts	58%
